Data: patent US10702465B2, “Oral care formulation and method for the removal of tartar and plaque from teeth” (priority 2015, dated 2020)
“Also recorded” adds a separate entry of the source.

Legend:
[1] = Centrifuge studies of colloidal fragmentation of tartar; type: in vivo, human; conditions: each agent alone
Text: Together DMI and chlorine dioxide fragment the insoluble glucan and polypeptide matrix which hold tartar together. […] Not to be held to any specific mechanism of action, it would appear that the primary role of chlorine dioxide is to break polypeptide linkages and protein polyol linkages. But this ability alone is insufficient for tartar fragmentation. The insoluble glucan matrix also appears to provide much of the needed glue to keep the tartar intact. Dimethyl isosorbide appears to enter the cracks within the insoluble glucan structure and splay out the glucan structure which in turn promotes the entry of water to re-hydrate the normally insoluble glucan and destabilize and glucan/biofilm matrix and fragment the tartar structure. Evidence for this rehydration and fragmentation mechanism is provided in the following two studies.
In the first study the subject's teeth were flossed with Reach floss, then flossed with a Waterpik water flosser. After the water flossing the water was removed from the mouth. 3 ml of distilled water was added to the mouth and the teeth were brushed with only water for 2 minutes. After the 2 minutes brushing cycle, the water was expelled into a funnel into a centrifuge tube. The subject's teeth were again flossed with a water flosser and then procedure “A” was followed three more times for a total of four 2 minute brushing cycles. […]

[2] = 24 hour period, 100% and 50% aqueous concentrations; cited from earlier work
Streptococcus mutans = conditions: high concentrations; cited from earlier work
[3] = background statement; cited from earlier work
[4] = Tartar removal trials by flossing and brushing, intraoral photographs (Example 5); type: in vivo, human; conditions: with chlorine dioxide
Text: All photographs in this example were taken by a professional oral hygienist using a Schick intraoral digital camera.
In other unsuccessful trials dimethyl isosorbide was mixed with numerous common tartar reducing toothpastes. The following picture is typical the failed result of six months of flossing with Reach® waxed floss and brushing twice per day with these various tartar reducing toothpastes with a Philips Sonicare® toothbrush for two minutes. The DMI concentration in each case was 7.1% (w).
The white spots present in FIGS. 15 and 17 are from enamel erosion from previous years of heavy tartar presence and attack of the enamel by bacteria.
In a separate study, 5% (w) DMI was mixed with 0.0094% (w) chlorine dioxide in of water [94.5% (w)]. After flossing the DMI-chlorine dioxide-water mixture was transferred to the mouth of the subject and the subject brushed the teeth for 2 minutes with Philips Sonicare®. After 6 weeks of flossing and brushing twice per day with the DMI-chlorine dioxide-water mixture, the photograph of FIG. 16 was taken.
After the picture of FIG. 16 was taken the trial formulation was changed from 5% (w) to 15% DMI 0.0085% (w) chlorine dioxide in water [84.9% (w)]. This new formulation was used for 8 weeks with the same flossing and brushing regimen used in the first 6 weeks. […]

[5] = Tolerability of chlorine dioxide concentrations in use

| SMILES | ability to fragment the tartar matrix ([1]; listed as DMI) | dissolution of collected dental tartar [2] | antibacterial properties (Streptococcus mutans) | removal of tartar from teeth [3] | removal of preexisting tartar ([4]; DMI levels above 10% (w)) | level of DMI at which no tartar is reported ([4]; light tartar producers) | ability to fragment the tartar matrix [1] | problems in use ([5]; chlorine dioxide at 0.01%) | problems in use ([5]; increased concentrations of chlorine dioxide (above 0.01%)) |
| --- | --- | --- | --- | --- | --- | --- | --- | --- | --- |
| CO[C@H]1CO[C@H]2[C@@H]1OC[C@H]2OC [DMIS, dimethylisosorbide] | Neither chlorine dioxide nor DMI by themselves show the ability to fragment the tartar matrix; also recorded: Neither chlorine dioxide nor DMI alone show the ability to fragment this matrix; also recorded: insufficient to allow DMI alone to rehydrate and fragment the tartar matrix | slowly dissolved | weak antibacterial at high concentrations | not effective at removing tartar from subjects' teeth in vivo | removed fairly rapidly | around 5% (w) or 8% (w) |  |  |  |
| [O][Cl+][O-] [chlorine dioxide] |  |  |  | ineffective in removing tartar |  |  | Neither chlorine dioxide nor DMI by themselves show the ability to fragment the tartar matrix; also recorded: Neither chlorine dioxide nor DMI alone show the ability to fragment this matrix | no reported problems | no problems |
